This passage reports Ki results from BindingDB's records for doi:10.1016/s0028-3908(05)80009-7 (Universit&Eacute, 1994).

For this assay, the target named is T1, Pituitary adenylate cyclase-activating polypeptide (Rattus norvegicus, UniProt P13589).
T1 sequence (P13589 whole entry): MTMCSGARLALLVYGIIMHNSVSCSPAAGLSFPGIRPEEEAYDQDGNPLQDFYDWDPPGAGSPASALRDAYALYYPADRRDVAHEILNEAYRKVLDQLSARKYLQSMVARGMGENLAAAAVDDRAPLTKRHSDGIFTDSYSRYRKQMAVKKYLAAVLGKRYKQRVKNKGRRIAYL

Where a SMILES comes first, the peptide text is derived from it. [ ]: non-standard residue; d: D form. ξ: configuration not given here. Ile(3ξ) = CCC(C)[C@H](N)C(=O)O

As a reminder, the Ki is a dissociation constant, usually derived from enzyme kinetics or from competition with a known ligand. A high value points to lower affinity. Take `CCC(C)[C@H](N)C(=O)N[C@@H](Cc1ccccc1)C(=O)N[C@H](C(=O)N[C@@H](CC(=O)O)C(=O)N[C@@H](CO)C(=O)N[C@@H](Cc1ccc(O)cc1)C(=O)N[C@@H](CO)C(=O)N[C@@H](CCCN=C(N)N)C(=O)N[C@@H](Cc1ccc(O)cc1)C(=O)N[C@@H](CCCN=C(N)N)C(=O)N[C@@H](CCCCN)C(=O)N[C@@H](CCC(N)=O)C(=O)N[C@@H](CCSC)C(=O)N[C@@H](C)C(=O)N[C@H](C(=O)N[C@@H](CCCCN)C(=O)N[C@@H](CCCCN)C(=O)N[C@@H](Cc1ccc(O)cc1)C(=O)N[C@@H](CC(C)C)C(=O)N[C@@H](C)C(=O)N[C@@H](C)C(=O)N[C@H](C(=O)N[C@@H](CC(C)C)C(N)=O)C(C)C)C(C)C)[C@@H](C)O` (stereo not given in full) [PACAP(5-27)] (H-[Ile(3ξ)]FTDSYSRYRKQMAVKKYLAAVL-NH2): the affinity, expressed as Ki, was 1 µM.
Then `CC[C@H](C)[C@H](NC(=O)CNC(=O)[C@H](CC(=O)O)NC(=O)[C@@H](CCCN=C(N)N)NC(=O)[C@@H](N)Cc1cnc[nH]1)C(=O)N[C@@H](Cc1ccccc1)C(=O)N[C@H](C(=O)N[C@@H](CC(=O)O)C(=O)N[C@@H](CO)C(=O)N[C@@H](Cc1ccc(O)cc1)C(=O)N[C@@H](CO)C(=O)N[C@@H](CCCN=C(N)N)C(=O)N[C@@H](Cc1ccc(O)cc1)C(=O)N[C@@H](CCCN=C(N)N)C(=O)N[C@@H](CCCCN)C(=O)N[C@@H](CCC(N)=O)C(=O)N[C@@H](CCSC)C(=O)N[C@@H](C)C(=O)N[C@H](C(=O)N[C@@H](CCCCN)C(=O)N[C@@H](CCCCN)C(=O)N[C@@H](Cc1ccc(O)cc1)C(=O)N[C@@H](CC(C)C)C(=O)N[C@@H](C)C(=O)N[C@@H](C)C(=O)N[C@H](C(=O)N[C@@H](CC(C)C)C(=O)NCC(=O)N[C@@H](CCCCN)C(=O)N[C@@H](CCCN=C(N)N)C(=O)N[C@@H](Cc1ccc(O)cc1)C(=O)N[C@@H](CCCCN)C(=O)N[C@@H](CCC(N)=O)C(=O)N[C@@H](CCCN=C(N)N)C(=O)N[C@H](C(=O)N[C@@H](CCCCN)C(=O)N[C@@H](CC(N)=O)C(=O)N[C@@H](CCCCN)C(N)=O)C(C)C)C(C)C)C(C)C)[C@@H](C)O` [[DArg2]PACAP(1-38)], with 0.01 µM; and `CCC(C)[C@H](NC(=O)CNC(=O)[C@@H](N)CC(=O)O)C(=O)N[C@@H](Cc1ccccc1)C(=O)N[C@H](C(=O)N[C@@H](CC(=O)O)C(=O)N[C@@H](CO)C(=O)N[C@@H](Cc1ccc(O)cc1)C(=O)N[C@@H](CO)C(=O)N[C@@H](CCCN=C(N)N)C(=O)N[C@@H](Cc1ccc(O)cc1)C(=O)N[C@@H](CCCN=C(N)N)C(=O)N[C@@H](CCCCN)C(=O)N[C@@H](CCC(N)=O)C(=O)N[C@@H](CCSC)C(=O)N[C@@H](C)C(=O)N[C@H](C(=O)N[C@@H](CCCCN)C(=O)N[C@@H](CCCCN)C(=O)N[C@@H](Cc1ccc(O)cc1)C(=O)N[C@@H](CC(C)C)C(=O)N[C@@H](C)C(=O)N[C@@H](C)C(=O)N[C@H](C(=O)N[C@@H](CC(C)C)C(N)=O)C(C)C)C(C)C)[C@@H](C)O` (stereo not given in full) [PACAP(3-27)] (H-DG[Ile(3ξ)]FTDSYSRYRKQMAVKKYLAAVL-NH2), with 3 µM.
Then `CC[C@H](C)[C@H](NC(=O)CNC(=O)[C@H](CC(=O)O)NC(=O)[C@@H](CCCN=C(N)N)NC(=O)[C@@H](N)Cc1cnc[nH]1)C(=O)N[C@@H](Cc1ccccc1)C(=O)N[C@H](C(=O)N[C@@H](CC(=O)O)C(=O)N[C@@H](CO)C(=O)N[C@@H](Cc1ccc(O)cc1)C(=O)N[C@@H](CO)C(=O)N[C@@H](CCCN=C(N)N)C(=O)N[C@@H](Cc1ccc(O)cc1)C(=O)N[C@@H](CCCN=C(N)N)C(=O)N[C@@H](CCCCN)C(=O)N[C@@H](CCC(N)=O)C(=O)N[C@@H](CCSC)C(=O)N[C@@H](C)C(=O)N[C@H](C(=O)N[C@@H](CCCCN)C(=O)N[C@@H](CCCCN)C(=O)N[C@@H](Cc1ccc(O)cc1)C(=O)N[C@@H](CC(C)C)C(=O)N[C@@H](C)C(=O)N[C@@H](C)C(=O)N[C@H](C(=O)N[C@@H](CC(C)C)C(N)=O)C(C)C)C(C)C)[C@@H](C)O` [[DArg2]PACAP(1-27)], with 0.5 µM; and “H-DSYSRYRKQMAVKKYLAAVLGKRYKQRVKNK-NH2 [PACAP(8-38)]”, with 0.03 µM.
